{
  "source": "patent US5500430A",
  "about": "“Amidic derivatives of glutamic, aspartic and 2-amino adipic acids, a process for preparing same, and anti-gastrin composition containing the derivatives” (Rotta Research Laboratorium S.p.A., priority 1990, dated 1996)",
  "key": {"[1]": {"biological_target": "T1, gastrin receptor sites on the cerebral cortex membranes of mice (Mus musculus, UniProt P56481)", "T1 construct": "Mouse cortical tissue; from tissue; host or cells: mouse cerebral cortex membranes", "T1 sequence (P56481 1-453)": "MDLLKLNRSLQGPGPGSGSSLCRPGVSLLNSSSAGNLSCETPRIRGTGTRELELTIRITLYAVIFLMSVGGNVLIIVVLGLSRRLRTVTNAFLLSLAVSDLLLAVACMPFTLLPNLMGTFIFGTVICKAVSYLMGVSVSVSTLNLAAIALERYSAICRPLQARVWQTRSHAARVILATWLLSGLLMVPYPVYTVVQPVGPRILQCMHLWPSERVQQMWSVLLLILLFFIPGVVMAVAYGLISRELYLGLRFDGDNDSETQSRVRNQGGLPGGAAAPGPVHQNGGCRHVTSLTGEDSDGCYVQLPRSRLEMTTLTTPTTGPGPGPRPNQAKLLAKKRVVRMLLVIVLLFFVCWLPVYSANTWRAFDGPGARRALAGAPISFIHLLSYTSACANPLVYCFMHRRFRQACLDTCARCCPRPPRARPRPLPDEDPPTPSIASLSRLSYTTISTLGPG", "experiment": "Inhibition of the binding of pentagastrin to mouse cortical membranes", "description": "Tests on binding to cerebral cortex membranes of mice\nThe capacities of some of the compounds of the invention to inhibit the binding of pentagastrin to the gastrin receptor sites on the cerebral cortex membranes of mice was to be evaluated. Pentagastrin tritiate[beta-alanyl-3-3H(N)] was used as the ligand.\nMouse cortical tissue Was homogenised cold in 20 volumes of tris buffer (pH 7.7). After washing and centrifuging, the final pellet was resuspended in 20 volumes of binding buffer containing, inter alia, TRIS, BSA and Bacitracin. 0.4 ml of the membrane thus obtained were then incubated with a radioactive tracer and the compounds under test for 40 minutes at 37° C.\nAfter the supernatant liquid had been removed by centrifuging, the radioactivity associated with the pellet was determined with a liquid scintillator (a beta-counter). The specific binding was the difference between the binding in the absence and in the presence of 10^-5M pentagastrin."}, "[2]": {"tested_on": "mouse colic adenocarcinoma", "experiment": "Colic tumorous growth induced by pentagastrin in mice", "type": "in vivo", "settings": "21 days", "description": "Inhibitory effect on the rate of growth of tumorous colic cells induced by pentagastrin\nGastrin has a trophic effect on the digestive epithelium.\nUpon the basis of this premise, it was wished to investigate whether the gastrin-specific antagonists of the invention could antagonise the growth of experimentally-induced gastrointestinal tumours.\nMale mice weighing 20-25 g were inoculated subcutaneously in the interscapular region with a suspension of 8×10^4 tumour cells of a mouse colic adenocarcinoma.\nAfter 21 days, the animals were killed and the fundic mucosa and the tumours were removed, weighed and extracted to determine the DNA."}, "[3]": {"settings": "pentagastrin + C-5 3 mg/Kg i.p. twice a day"}, "[4]": {"settings": "pentagastrin + C-5 10 mg/Kg i.p. twice a day"}},
  "note": "pIC50: −log10 of the molar value.",
  "data": [
    {"smiles": "O=C(O)CC[C@@H](NC(=O)c1cc(Cl)cc(Cl)c1)C(=O)N1CCC2(CCCC2)CC1", "note": "[Compound C5]", "values": [
      {"measurement": "pIC50", "setting": "[1]; pentagastrin tritiate ligand, 40 minutes at 37° C., read-out: IC50, inhibition of the binding of pentagastrin", "result": 6.96},
      {"measurement": "Activity on the central receptor relative to C-30", "setting": "[1]; vs C-30", "result": "three times less active"},
      {"measurement": "Effect on colic tumour weight and DNA content (in words)", "setting": "[2]; mice", "result": "can inhibit both the aforementioned trophic effects of pentagastrin in a significant and dose-dependent manner"},
      {"measurement": "Tumorous DNA, Mean", "setting": "[2]; [3]", "result": "3.24 ± 0.42", "unit": "mg"},
      {"measurement": "Weight of the colic tumor, Mean ± SD", "setting": "[2]; [3]", "result": "601.5 ± 91.7", "unit": "mg"},
      {"measurement": "Tumorous DNA, Mean", "setting": "[2]; [4]", "result": "2.94 ± 0.31", "unit": "mg"},
      {"measurement": "Weight of the colic tumor, Mean ± SD", "setting": "[2]; [4]", "result": "554 ± 61.7", "unit": "mg"}
    ]}
  ]
}
